Patent US20050158709A1, “Methods for determinging the influence of protein binding on antiretroviral activity” (priority 2002, published 2005)
Like-named read-outs stand apart in the source and are kept apart here.

Assays:
HIV [1] = details: in vitro; increasing AAG; cited from earlier work
wild type HIV-1 (LAI) = test: Cell-based antiviral assay (MT4 cells, MTT method) in the presence of human plasma or serum proteins, wild type HIV-1; details: for ratio between EC50 in presence of indicated protein and EC50 in presence of 10% FCS: HS 50% / ratio between EC50 in presence of indicated protein and EC50 in presence of 10% FCS: AAG 1 mg/mL / ratio between EC50 in presence of indicated protein and EC50 in presence of 10% FCS: FCS (10%) / ratio between EC50 in presence of indicated protein and EC50 in presence of 10% FCS: HSA 45 mg/mL: wild type HIV-1 (LAI), median of at least two determinations; for ratio between EC50 in presence of indicated protein and EC50 in presence of 10% FCS: HS 50%: 50% human serum; for ratio between EC50 in presence of indicated protein and EC50 in presence of 10% FCS: AAG 1 mg/mL: AAG 1 mg/mL and 10% FCS; for ratio between EC50 in presence of indicated protein and EC50 in presence of 10% FCS: FCS (10%): FCS 10% (reference); for ratio between EC50 in presence of indicated protein and EC50 in presence of 10% FCS: HSA 45 mg/mL: HSA 45 mg/mL and 10% FCS
Protocol: (§1) The influence of AAG, Human Serum Albumin (HSA) or Human Serum (HS) on the activity of antiretrovirals was measured in a cell-based antiviral assay. A phenotypic assay was performed to measure the ability of resistant virus strains to grow in the presence of each drug of interest, and in the presence of various combinations of plasma or serum proteins at different concentrations: • 50% heat-inactivated human serum (HS) with or without 10% fetal calf serum (FCS) • 1 mg/mL AAG and 10% FCS • 45 mg/mL human serum albumin (HSA) and 10% FCS
(§2) Anti-HIV activity was determined in HIV-or mock-infected MT4 cells by the MTT method as described by Pauwels et al (1988), J.Virol.Meth.20:[…], and Hertogs et al (1998), Antimicrob.Ag.Chemother.42:269-27. Briefly, recombinant or non-recombinant virus, with a specific resistance profile, were grown in cell culture to obtain viral stocks of known concentration. Susceptibility testing of the viral stocks in the presence of various antiviral agents and in the presence of plasma or serum proteins, and a detection system based on MTT determined to which extent agents inhibited replication of the virus strains.
(§3) Virus strains used for these studies had different origins: • HIV strains obtained by in vitro selection in the presence of various antivirals • Recombinant clinical isolates constructed according to the Antivirogram™ method as described by Hertogs et al (1998).

R13028 = test: EC50 against viral strain R13028; assay type: cell-based, HIV; details: Human immunodeficiency virus 1
Protocol: (§4) As an example, protease inhibitors have clinically relevant concentrations in a range of around 500 nM and more, sub-therapeutic concentrations in the range of around 50 nM to around 500 nM, and in vitro testing concentrations in the range of less than around or 50 nM.

LAI = test: EC50 against viral strain LAI; assay type: cell-based, HIV; details: Human immunodeficiency virus 1
Protocol: as §4

R13025 = test: EC50 against viral strain R13025; assay type: cell-based, HIV; details: Human immunodeficiency virus 1
Protocol: as §4

[2] = test system: various HIV-1 strains (resistant strains); assay type: cell-based; details: for EC50 ratio (human plasma or serum protein vs 10% FCS), concentration range 50 nM-5 nM: EC50 50 nM-5 nM (in vitro testing concentrations, wild type HIV); for EC50 ratio (human plasma or serum protein vs 10% FCS), concentration range 500 nM-50 nM: strains with EC50 500 nM-50 nM (sub-therapeutic concentrations)
Protocol: as §1, §2, §3
Virus strains with various levels of resistance against each of the PIs were used in similar experiments with AAG.

R13485 = test: EC50 against viral strain R13485; assay type: cell-based, HIV; details: Human immunodeficiency virus 1
Protocol: as §4

R13273 = test: EC50 against viral strain R13273; assay type: cell-based, HIV; details: Human immunodeficiency virus 1
Protocol: as §4

R13127 = test: EC50 against viral strain R13127; assay type: cell-based, HIV; details: Human immunodeficiency virus 1
Protocol: as §4

R13036 = test: EC50 against viral strain R13036; assay type: cell-based, HIV; details: Human immunodeficiency virus 1
Protocol: as §4

R13031 = test: EC50 against viral strain R13031; assay type: cell-based, HIV; details: Human immunodeficiency virus 1
Protocol: as §4

HIV [3] = details: cited from earlier work
HIV [4] = details: extensive protein binding prevented intracellular diffusion; cited from earlier work
T13127 = test: EC50 against viral strain T13127; assay type: cell-based, HIV; details: Human immunodeficiency virus 1
Protocol: as §4

R13020 = test: EC50 against viral strain R13020; assay type: cell-based, HIV; details: Human immunodeficiency virus 1
Protocol: as §4

T13025 = test: EC50 against viral strain T13025; assay type: cell-based, HIV; details: Human immunodeficiency virus 1
Protocol: as §4

[5] = protein not given, AAG, median of at least two determinations
[6] = strains with EC50 5 μM-500 nM (clinically relevant concentrations), protein not given, AAG, median of at least two determinations

## CC(C)[C@H](NC(=O)N(C)Cc1ccccn1)C(=O)N[C@@H](Cc1ccccc1)[C@H](O)[C@H](O)[C@H](Cc1ccccc1)NC(=O)[C@@H](NC(=O)N(C)Cc1ccccn1)C(C)C [A77003]
HIV [1]
  antiviral efficacy as the concentration of α1-acid glycoprotein (AAG) was increased: decreased

## CC(C)(C)NC(=O)[C@@H]1CN(Cc2cccnc2)CCN1C[C@@H](O)C[C@@H](Cc1ccccc1)C(=O)N[C@H]1c2ccccc2C[C@H]1O [Indinavir, indinavir]
Wild type HIV-1 (LAI); wild-type HIV-1, presence of AAG and HS
  effect of AAG and HS on potency against wild-type HIV-1: unaffected
R13028
  EC50: ~261 nM
LAI
  EC50: ~36 nM
R13025
  EC50: ~2000 nM

## Cc1cccc(C)c1OCC(=O)N[C@@H](Cc1ccccc1)[C@@H](O)C[C@H](Cc1ccccc1)NC(=O)[C@H](C(C)C)N1CCCNC1=O [Lopinavir, lopinavir]
Wild type HIV-1 (LAI)
  ratio between EC50 in presence of indicated protein and EC50 in presence of 10% FCS: HS 50%: 5
  ratio between EC50 in presence of indicated protein and EC50 in presence of 10% FCS: AAG 1 mg/mL: 26
  ratio between EC50 in presence of indicated protein and EC50 in presence of 10% FCS: FCS (10%): 1
  ratio between EC50 in presence of indicated protein and EC50 in presence of 10% FCS: HSA 45 mg/mL: 5
[2]
  EC50 ratio (human plasma or serum protein vs 10% FCS), concentration range 5 μM-500 nM: 4
[2]; [5]
  EC50 ratio (human plasma or serum protein vs 10% FCS), concentration range 50 nM-5 nM: 64
  EC50 ratio (human plasma or serum protein vs 10% FCS), concentration range 500 nM-50 nM: 20
R13485
  EC50: ~367 nM
LAI
  EC50: ~9 nM
R13273
  EC50: ~2000 nM

## Cc1c(O)cccc1C(=O)N[C@@H](CSc1ccccc1)[C@H](O)CN1C[C@H]2CCCC[C@H]2C[C@H]1C(=O)NC(C)(C)C [Nelfinavir, nelfinavir]
Wild type HIV-1 (LAI)
  ratio between EC50 in presence of indicated protein and EC50 in presence of 10% FCS: HS 50%: 25
  ratio between EC50 in presence of indicated protein and EC50 in presence of 10% FCS: AAG 1 mg/mL: 31
  ratio between EC50 in presence of indicated protein and EC50 in presence of 10% FCS: FCS (10%): 1
  ratio between EC50 in presence of indicated protein and EC50 in presence of 10% FCS: HSA 45 mg/mL: 7
R13127
  EC50: ~8000 nM
R13036
  EC50: ~1000 nM
R13028
  EC50: ~254 nM
[2]; [5]
  EC50 ratio (human plasma or serum protein vs 10% FCS), concentration range 50 nM-5 nM: 11
  EC50 ratio (human plasma or serum protein vs 10% FCS), concentration range 500 nM-50 nM: 9
[2]; [6]
  EC50 ratio (human plasma or serum protein vs 10% FCS), concentration range 5 μM-500 nM: 5
LAI
  EC50: ~32 nM

## CC(C)c1nc(CN(C)C(=O)N[C@H](C(=O)N[C@@H](Cc2ccccc2)C[C@H](O)[C@H](Cc2ccccc2)NC(=O)OCc2cncs2)C(C)C)cs1 [Ritonavir, ritonavir]
LAI
  EC50: ~36 nM
R13025
  EC50: ~2000 nM
R13031
  EC50: ~407 nM

## CC(C)CN(C[C@@H](O)[C@H](Cc1ccccc1)NC(=O)[C@H](CC(N)=O)NC(=O)c1ccc2ccccc2n1)C(=O)NC(C)(C)C [SC-52151, telinavir]
HIV [3]
  antiretroviral activity in vitro: potent
HIV [4]
  activity in vivo (clinical efficacy): insufficient

## CC(C)(C)NC(=O)[C@@H]1C[C@@H]2CCCC[C@@H]2CN1C[C@@H](O)[C@H](Cc1ccccc1)NC(=O)[C@H](CC(N)=O)NC(=O)c1ccc2ccccc2n1 [Saquinavir, saquinavir]
Wild type HIV-1 (LAI)
  ratio between EC50 in presence of indicated protein and EC50 in presence of 10% FCS: HS 50%: 5
  ratio between EC50 in presence of indicated protein and EC50 in presence of 10% FCS: AAG 1 mg/mL: 5
  ratio between EC50 in presence of indicated protein and EC50 in presence of 10% FCS: FCS (10%): 1
  ratio between EC50 in presence of indicated protein and EC50 in presence of 10% FCS: HSA 45 mg/mL: 3
T13127
  EC50: ~710 nM
[2]
  EC50 ratio (human plasma or serum protein vs 10% FCS), concentration range 5 μM-500 nM: 3
  EC50 ratio (human plasma or serum protein vs 10% FCS), concentration range <5 nM: 19
  EC50 ratio (human plasma or serum protein vs 10% FCS), concentration range >5 μM: 2
[2]; [5]
  EC50 ratio (human plasma or serum protein vs 10% FCS), concentration range 50 nM-5 nM: 5
  EC50 ratio (human plasma or serum protein vs 10% FCS), concentration range 500 nM-50 nM: 4
[2]; different HIV-1 strains, AAG 1 mg/mL vs 10% FCS, FIG. 1
  influence of AAG on the anti-HIV activity: decreases with increasing inhibitor concentrations
R13020
  EC50: ~7000 nM
T13025
  EC50: ~166 nM

## CC(C)CN(C[C@@H](O)[C@H](Cc1ccccc1)NC(=O)O[C@H]1CCOC1)S(=O)(=O)c1ccc(N)cc1 [amprenavir]
Wild type HIV-1 (LAI)
  ratio between EC50 in presence of indicated protein and EC50 in presence of 10% FCS: HS 50%: 12
  ratio between EC50 in presence of indicated protein and EC50 in presence of 10% FCS: AAG 1 mg/mL: 25
  ratio between EC50 in presence of indicated protein and EC50 in presence of 10% FCS: FCS (10%): 1
  ratio between EC50 in presence of indicated protein and EC50 in presence of 10% FCS: HSA 45 mg/mL: 2
R13127
  EC50: ~2000 nM
[2]; [5]
  EC50 ratio (human plasma or serum protein vs 10% FCS), concentration range 50 nM-5 nM: 38
  EC50 ratio (human plasma or serum protein vs 10% FCS), concentration range 500 nM-50 nM: 14
[2]; [6]
  EC50 ratio (human plasma or serum protein vs 10% FCS), concentration range 5 μM-500 nM: 5
LAI
  EC50: ~42 nM
R13025
  EC50: ~412 nM

## CC(C)CN(C[C@@H](O)[C@H](Cc1ccccc1)NC(=O)OC1CO[C@H]2OCC[C@@H]12)S(=O)(=O)c1ccc(N)cc1 (some centres unmarked) [compound 1]
[2]
  EC50 ratio (human plasma or serum protein vs 10% FCS), concentration range 5 μM-500 nM: 7
  EC50 ratio (human plasma or serum protein vs 10% FCS), concentration range <5 nM: 85
  EC50 ratio (human plasma or serum protein vs 10% FCS), concentration range >5 μM: 4
[2]; [5]
  EC50 ratio (human plasma or serum protein vs 10% FCS), concentration range 50 nM-5 nM: 24
  EC50 ratio (human plasma or serum protein vs 10% FCS), concentration range 500 nM-50 nM: 12
